We go through four molecules from publication PMC11990452, “Discovery of MAGL Inhibition by Lophine Derivatives: An Unexpected Finding from Chemiluminescent Assay Development” (Molecules, 2025).

The target in assay [1] is T1, human recombinant monoacylglycerol lipase (hMAGL) (Homo sapiens, UniProt Q99685).
T1 construct: gene MGLL
T1 sequence (Q99685 1-303): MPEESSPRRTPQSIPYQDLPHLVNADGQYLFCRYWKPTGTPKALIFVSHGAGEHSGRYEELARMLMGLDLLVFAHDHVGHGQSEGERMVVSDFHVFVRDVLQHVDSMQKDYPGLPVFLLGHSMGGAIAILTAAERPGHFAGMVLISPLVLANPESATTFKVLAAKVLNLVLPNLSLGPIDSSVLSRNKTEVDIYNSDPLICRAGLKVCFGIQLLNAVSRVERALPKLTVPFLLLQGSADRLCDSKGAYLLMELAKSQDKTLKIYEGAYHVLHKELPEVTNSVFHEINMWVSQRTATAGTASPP
In words: fluorometric 7-HRO hydrolysis assay, residual activity at […]. Format: biochemical.

For assay [2], the target named is T1, human recombinant monoacylglycerol lipase (hMAGL). The assay can be described thus: fluorometric 7-HRO hydrolysis assay with recombinant hMAGL; dilution reversibility and Lineweaver-Burk kinetics. The class given is biochemical.

For orientation: IC50 means the concentration that inhibits the measured activity by half.

`Oc1ccc(-c2nc(-c3ccccc3)c(-c3ccccc3)[nH]2)cc1` [compound 1, 2-(4-Hydroxyphenyl)-4,5-Diphenylimidazole]: in assay [1], the “fluorometric 7-HRO hydrolysis assay, residual activity at 50 nM-100 μM” value is listed as “all tested compounds interact with MAGL, leading to a concentration-dependent reduction in enzyme activity”.

On to `CCCC(=O)Oc1ccc(-c2nc(-c3ccccc3)c(-c3ccccc3)[nH]2)cc1` [compound 2, Butyric Acid Ester of 2-(4-Hydroxyphenyl)-4,5-Diphenylimidazole], for which the “fluorometric 7-HRO hydrolysis assay, residual activity at 50 nM-100 μM” value in assay [1] is on record as “all tested compounds interact with MAGL, leading to a concentration-dependent reduction in enzyme activity”.

As to `CCCCCCCC(=O)Oc1ccc(-c2nc(-c3ccccc3)c(-c3ccccc3)[nH]2)cc1` [compound 3, Octanoic Acid Ester of 2-(4-Hydroxyphenyl)-4,5-Diphenylimidazole], in assay [2], the IC50 amounted to 21 µM.

Consider `CCCCCCCCCCCCCCCC(=O)Oc1ccc(-c2nc(-c3ccccc3)c(-c3ccccc3)[nH]2)cc1` [compound 4, Palmitic Acid Ester of 2-(4-Hydroxyphenyl)-4,5-Diphenylimidazole], for which the IC50 in assay [2] was found to be 6.5 µM.
